Data taken from PubChem BioAssay AID1845208 (Molecular Pharmacology Branch, DTP, NCI, 2023).

System: NCI-H196 SCLC complex tumor spheroid viability
Test: Anticancer human tumor NCI-H196 cell line growth inhibition;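 also: spheroids exposed to compounds for 7 days before readout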
Settings: for IC50: curve of first compound; for viability, T/C: stronger effect = lower value; active = viability on the fitted dose curve at most 10% of control; inactive = the rest
Text: Multicellular complex tumor spheroid response to DNA repair inhibitors in combination with DNA-damaging drugs
This study explores the anticancer activities of DNA-damaging drugs and inhibitors of DNA damage repair, both as single agents and in combinations. Complex tumor spheroids comprised of malignant cells, endothelial cells and mesenchymal stem cells served as an in vitro model for human solid tumors. This model system incorporates physiologically relevant features and patient-derived or established malignant cell lines with clinically relevant genetic alterations from many tumor types. Twenty-six patient-derived or established malignant cell lines were evaluated representing sarcoma, melanoma, small cell lung cancer (SCLC), non-small cell lung cancer (NSCLC), as well as bladder, ovarian and pancreatic cancers. The concentration ranges selected for each drug and investigational agent were based upon clinically achievable concentrations if the clinical Cmax of the agent was known.
Compounds. The drugs and compounds olaparib (NSC753686), talazoparib (NSC767125), berzosertib (NSC777718), elimusertib (NSC800525), nedisertib (NSC802822), VX-984 (NSC792969), AZD-1390 (NSC803789), temozolomide (NSC362856), topotecan (NSC609699), trabectedin (NSC813783), staurosporine (NSC755774), and gemcitabine (NSC613327) were obtained from the National Cancer Institute (NCI) Developmental Therapeutics Program Chemical Repository. The FDA-approved anticancer drug set is available from the Developmental Therapeutics Program at https://dtp.cancer.gov/organization/dscb/obtaining/available_plates.htm. […] The stock solutions were prepared in dimethyl sulfoxide (DMSO, Sigma-Aldrich, St. Louis, MO, cat. D2650) at 400-fold the tested concentration and stored at -70 degrees C. Prior to their use, the stock solutions were diluted in fresh medium and the final DMSO concentration in the assay was 0.25% (v/v). All drugs and investigational agents were tested over a range starting from a high concentration at or near the clinical Cmax and decreasing in half-log increments. If the clinical Cmax for an agent had not been determined, the highest concentration tested was 10 microM.
Cell Lines. The patient-derived cancer cell (PDC) lines: 156681-154-R-J1-PDC, 283228-195-R-J1-PDC, 287954-098-R-J1-PDC, 292921-168-R-J2-PDC, 349418-098-R-PDC, 425362-245-T-J1-PDC, 556581-035-R-J1-PDC, and BL0293-F563-PDC were received from the NCI Patient-Derived Models Repository (PDMR, https://pdmr.cancer.gov). The established cell lines HS-SY-2 (RRID:CVCL_8719), MPNST, and SYO-1 (RRID:CVCL_7146) were obtained from the Sloan Kettering Institute. The alveolar soft parts sarcoma cell line ASPS-1 (RRID:CVCL_S738) was established at the NCI and grown from internal seed stocks. The following established cell lines were purchased from the American Type Culture Collection (ATCC, Manassas, VA): G-401 (ATCC, cat. CRL-1441, RRID:CVCL_0270), SW982 (ATCC, cat. HTB-93, RRID:CVCL_1734), VA-ES-BJ (ATCC, cat. CRL-2138, RRID:CVCL_1785), NCI-H719 (ATCC, cat. CRL-5837, RRID:CVCL_1582), NCI-H196 (ATCC, cat. CRL-5823, RRID:CVCL_1509), NCI-H841 (ATCC, cat. CRL-5845, RRID:CVCL_1595), NCI-H1618 (ATCC, cat. CRL-5879, RRID:CVCL_1480), NCI-H1876 (ATCC, cat. CRL-5902, RRID:CVCL_1503), DMS 114 (ATCC, cat. CRL-2066; RRID:CVCL_1174), NCI-H211 (ATCC, cat. CRL-5824; RRID:CVCL_1529), and SW 1271 (ATCC, cat. CRL-2177, RRID:CVCL_1716). The small cell lung cancer cell line COR-L88 was purchased from Sigma-Aldrich (cat. 92031917-1VL, RRID:CVCL_1141). The non-small cell lung cancer cell lines NCI-H226 (RRID:CVCL_1544) and NCI-H322M (RRID:CVCL_1557) were established at the NCI and grown from internal seed stocks. Pooled donor human umbilical vein endothelial cells (HUVEC, Lonza, cat. CC-2519) and human mesenchymal stem cells (hMSC, Lonza, cat. PT-2501) were purchased from Lonza (Walkersville, MD).
Cell Culture. All cells were maintained in an incubator at 37 degrees C and 5% CO2 with 95% humidity. […]

O=C(c1cc(Cc2n[nH]c(=O)c3ccccc23)ccc1F)N1CCN(C(=O)C2CC2)CC1 + Cn1nnc2c(C(N)=O)ncn2c1=O
> 30 µM: IC50 (second compound 1 µM) | IC50 (second compound 3.16 µM) | IC50 (second compound 10 µM) | IC50 (second compound 31.6 µM) | IC50 (second compound 100 µM)
inactive: viability, T/C (second compound 1 µM, first compound 0.0949 µM) 102% | viability, T/C (second compound 1 µM, first compound 0.3 µM) 102% | viability, T/C (second compound 1 µM, first compound 0.949 µM) 93.3% | viability, T/C (second compound 1 µM, first compound 3 µM) 89.1% | viability, T/C (second compound 1 µM, first compound 9.49 µM) 86.1% | viability, T/C (second compound 1 µM, first compound 30 µM) 83.7% | viability, T/C (second compound 3.16 µM, first compound 0.0949 µM) 97.7% | viability, T/C (second compound 3.16 µM, first compound 0.3 µM) 94.3% | viability, T/C (second compound 3.16 µM, first compound 0.949 µM) 104% | viability, T/C (second compound 3.16 µM, first compound 3 µM) 98.1% | viability, T/C (second compound 3.16 µM, first compound 9.49 µM) 85.5% | viability, T/C (second compound 3.16 µM, first compound 30 µM) 79.8% | viability, T/C (second compound 10 µM, first compound 0.0949 µM) 99.6% | viability, T/C (second compound 10 µM, first compound 0.3 µM) 97.9% | viability, T/C (second compound 10 µM, first compound 0.949 µM) 92.6% | viability, T/C (second compound 10 µM, first compound 3 µM) 95.2% | viability, T/C (second compound 10 µM, first compound 9.49 µM) 92.4% | viability, T/C (second compound 10 µM, first compound 30 µM) 90.8% | viability, T/C (second compound 31.6 µM, first compound 0.0949 µM) 101% | viability, T/C (second compound 31.6 µM, first compound 0.3 µM) 101% | viability, T/C (second compound 31.6 µM, first compound 0.949 µM) 100% | viability, T/C (second compound 31.6 µM, first compound 3 µM) 106% | viability, T/C (second compound 31.6 µM, first compound 9.49 µM) 98.7% | viability, T/C (second compound 31.6 µM, first compound 30 µM) 86.8% | viability, T/C (second compound 100 µM, first compound 0.0949 µM) 95.6% | viability, T/C (second compound 100 µM, first compound 0.3 µM) 96.5% | viability, T/C (second compound 100 µM, first compound 0.949 µM) 98.7% | viability, T/C (second compound 100 µM, first compound 3 µM) 87.6% | viability, T/C (second compound 100 µM, first compound 9.49 µM) 86.7% | viability, T/C (second compound 100 µM, first compound 30 µM) 76.2%
